No end group written: not given here.
How the values were obtained:
[1] = test system: cell aggregates containing pituitary hormone-producing cells (day 63 sort, DX treated for 14 days); test: GH stimulation test using GRF and GH suppression test using somatostatin; assay type: cell-based, human; settings: day 63 sort + 40 days, DX 14 days; GRF 2 μg/mL, 24 hr
Description: Using cell aggregates obtained by purifying and reaggregating cell aggregates on day 63 after the start of differentiation induction, suspension culturing for 40 days, and treating with DX for 14 days, a GH stimulation test using GRF and a GH suppression test using somatostatin were conducted. Fifteen cell aggregates were transferred to a 6-well culture plate (manufactured by SUMITOMO BAKELITE CO., LTD., for suspension culturing, culture area 9.2 cm^2) containing a serum-free medium (2 mL) supplemented with 20% KSR, cultured for 24 hr under conditions of 37° C., 40% O2, and the culture supernatant was recovered. The cell aggregates were washed with a serum-free medium supplemented with 20% KSR, transferred to a 6-well culture plate containing a new serum-free medium (2 mL) supplemented with 20% KSR, and GRF 2 μg/mL or somatostatin 100 ng/mL was added. After culturing for 24 hr under condition of 37° C., 40% O2, the culture supernatant was recovered. […]

[2] = test system: cell aggregates containing pituitary hormone-producing cells (reaggregated EpCAM-positive cells from human ES cells); test: ACTH stimulation test using CRH or dexamethasone on reaggregated EpCAM-positive cell aggregates (ACTH ELISA of culture supernatant); assay type: cell-based; settings: 24 hr
Description: An ACTH stimulation test using CRH (manufactured by NIPRO ES PHARMA CO., LTD.) was performed using cell aggregates obtained by purifying and reaggregating cell aggregates on day 62 after the start of differentiation induction and suspension culturing for 41 days. Twenty cell aggregates were transferred to a 10 cm suspension culture dish containing a serum-free medium (10 mL) supplemented with 20% KSR, cultured for 24 hr under condition of 37° C., 40% 02, and the culture supernatant was recovered. The cell aggregates were washed with a serum-free medium supplemented with 20% KSR, transferred to a new 10 cm suspension culture dish containing a serum-free medium (10 mL) supplemented with 20% KSR, and CRH 5 μg/mL was added. After culturing for 24 hr under condition of 37° C., 40% O2, the culture supernatant was recovered. The ACTH concentration in the collected culture supernatant was measured by the ELISA method used in clinical testing (testing outsourced to SRL, Inc.).
In addition, the response of EpCAM-positive cell reaggregates to hormones was also examined. On day 60 after the start of differentiation induction, cell sorting was performed using an anti-EpCAM antibody, and then EpCAM-positive cells were reaggregated and cultured until day 103 after the start of differentiation induction. Thereafter, an ACTH stimulation test using CRH (manufactured by NIPRO ES PHARMA CO., LTD.) or dexamethasone (DX, manufactured by Aspen Japan K.K.) was conducted. Specifically, 20 cell aggregates were transferred to a 10 cm suspension culture dish containing 10 mL of serum-free medium supplemented with 20% KSR, and after culturing for 24 hr under conditions of 37° C., 40% 02, the culture supernatant was recovered. […] The ACTH concentration in the recovered culture supernatant was measured by the ELISA method used in clinical testing (testing outsourced to SRL, Ltd.). […]

[3] = test system: cell aggregates from human iPS cells; test: Comparison of SAG treatment period on ACTH secretion capacity of cell aggregates from human iPS cells; assay type: cell-based; settings: SAG until day 30 versus continued after day 30 (days 61, 103, 131)
Description: Cell aggregates containing hypothalamic cells, pituitary progenitor cells, and pituitary hormone-producing cells were produced using the same differentiation induction method as in Example 1 (method without cell sorting using anti-EpCAM antibody). Regarding the SAG treatment period, two groups of a group in which SAG is added from immediately after the start of differentiation induction until day 30 (see FIG. 2), and a group so in which SAG is added from immediately after the start of differentiation induction and after day 30 (until days 61, 103, and 131) were set, and the ACTH secretion capacity was compared.

hypopituitary mice = test: Transplantation of EpCAM-positive cell reaggregates under the kidney capsule of hypopituitary mice; blood ACTH with CRH, dexamethasone or LPS stimulation; assay type: in vivo, mouse; design: dose or concentration left out as unconfirmed; settings: CRH intraperitoneal; blood 1 hr after; 4, 12, 24 weeks after transplantation
Description: Thereafter, the cells were cultured up to day 107 after the start of differentiation induction and transplanted to under the capsule of the left kidney of hypopituitary mice (10-17 weeks old) whose pituitary was surgically removed (transplantation group). A control group (sham group) was also set in which only the transplantation procedure was performed and no EpCAM-positive cells were transplanted. In addition, hypopituitary mice whose pituitary gland was surgically removed were produced by performing using a transaural approach on SCID mice (7-9 weeks old, male). […] CRH stimulation was applied to the transplantation group and the sham group, and the effect on ACTH secretion capacity was examined. Specifically, mice were administered with CRH (2 pg/kg, intraperitoneal administration) 4, 12, or 24 weeks after transplantation, and blood was collected before CRH administration and 1 hr after CHR administration. Each blood ACTH concentration was measured using ACTH ELISA kit (MD Bioproducts).

GRF: GRF used for the GH stimulation test (YADAIFTNSYRKVLGQLSARKLLQDIMSRQQGESNQERGARARL; ends and bridges not checked; UniProt P01286 32-75, looked up)
increase of the amount of GH secretion by addition of GRF [1]: a little less than two times

C[C@@H]1C[C@H]2[C@@H]3CCC4=CC(=O)C=C[C@]4(C)[C@@]3(F)[C@@H](O)C[C@]2(C)[C@@]1(O)C(=O)CO [dexamethasone]
decrease of ACTH secretion amount by dexamethasone stimulation ([2]; day 60 sort, cultured to day 103, 500 ng/mL dexamethasone): about 50%

CNC1CCC(N(Cc2cccc(-c3ccncc3)c2)C(=O)c2sc3ccccc3c2Cl)CC1 (stereo not drawn) [SAG, N-Methyl-N′-(3-pyridinylbenzyl)-N′-(3-chlorobenzo[b]thiophene-2-carbonyl)-1,4-diaminocyclohexane]
ACTH secretion capacity depending on SAG treatment period [3]: improved by stopping SAG treatment on day 30

CRH: CRH (manufactured by NIPRO ES PHARMA CO., LTD.) used for the ACTH stimulation test (SEEPPISLDLTFHLLREVLEMARAEQLAQQAHSNRKLMEII; ends and bridges not checked; UniProt P06850 154-194, looked up)
blood ACTH concentration after CRH stimulation in transplantation group (hypopituitary mice): further increase | increase of ACTH secretion amount by CRH stimulation ([2]; day 60 sort, cultured to day 103, 5 μg/mL CRH): about 2.2 times | increase of the amount of ACTH secretion by addition of CRH ([2]; day 62 sort + 41 days suspension culture, CRH 5 μg/mL): a little less than two times

— US20240400983A1, “CELL AGGREGATE INCLUDING PITUITARY HORMONE-PRODUCING CELLS AND METHOD FOR PRODUCING SAME” (Sumitomo Pharma Co., Ltd., priority 2021, published 2024)
